Test results reported in US8207293B2, “Peptides derived from maurocalcine used as vectors for intracellular addressing of molecules of interest” (Commissariat a l'Energie Atomique, priority 2004, dated 2012).

Key:
HEK293 cells = test: Cell penetration and subcellular distribution of complexes in HEK293 cells, confocal microscopy; assay type: cell-based, human; conditions: for cellular distribution of complexes: 333 nM
Description: Soluble streptavidin-cyanin 3 and streptavidin-cyanin 5 (Strept-Cy^3 and Strept-Cy^5, AMERSHAM) were mixed with 4 molar equivalents of biotinylated maurocalcine (1 mM) or biotinylated maurocalcine-derived peptide, in phosphate buffer (PBS, in mM: 136 NaCl, 1.47 Na2HPO4, 2.6 KCl, 1 CaCl2, 0.5 MgCl2, pH 7.2), for 2 hours at 37° C. and in the dark.
The human embryonic kidney cells (HEK 293 line, ATCC) are divided before confluence, by treatment with trypsin (1%), and are maintained in DMEM medium (INVITROGEN) containing 10% of inactivated fetal calf serum (INVITROGEN) and 1% of penicillin/streptomycin (INVITROGEN), in a CO2 incubator (5%). The culture medium is changed every 2 days.
The cells were incubated with maurocalcine and the derived peptides, biotinylated and complexed with streptavidin-cyanin 3 or with streptavidin-cyanin 5, […], in the dark and at ambient temperature, for 30 minutes to 1 hour. After 3 washes in PBS, the cells are fixed at ambient temperature, in a paraformaldehyde solution (4%), for 10 min, in the dark, washed in PBS and incubated for one hour with FITC-conjugated concanavalin (MOLECULAR PROBES, 5 μg/ml) in order to label the plasma membrane, and TO-PRO-3 iodide (MOLECULAR PROBES, 1 μM) in order to label the nucleus. In order to label the cytoskeleton, the cells were fixed and permeabilized with ice-cold methanol, for 10 min, washed twice in PBS and incubated with a mouse anti-alpha-tubulin antibody (1:1000, SIGMA), for 2 hours. After two washes in PBS, the cells were incubated for one hour with an anti-mouse IgG secondary antibody conjugated to Alexa 488 (1:1000, MOLECULAR PROBES). The cultures were then mounted in Vectashield mounting medium (VECTOR LABORATORIES). Preparations were observed by laser scanning confocal microscopy, using a Leica TCS-SP2 control system. The Alexa-488 and Cy3 or propidium iodide (PI) fluorescences were excited sequentially and then recorded. The Cy3 fluorescence was excited using a 543 nm helium-neon laser beam and the fluorescence emission was recorded between 554 nm and 625 nm. The images were introduced into Adobe Photoshop 7.0.

RyR1 receptor = target: T1, RyR1 receptor (Oryctolagus cuniculus, UniProt P11716); test: Ca2+ release by heavy sarcoplasmic reticulum vesicles (antipyrylazo III); assay type: biochemical; conditions: 100 nM complex
T1 construct: from tissue; host or cells: heavy sarcoplasmic reticulum vesicles (skeletal muscle implied)
Description: The heavy sarcoplasmic reticulum vesicles are prepared according to the method of Kim et al. (J. Biol. Chem., 1983, 258, 9662-9668) modified as described in Marty et al. (J. Biol. Chem., 2000, 275, 8206-8212). The protein concentration is measured by the Biuret method.
The Ca^2+ release by the heavy sarcoplasmic reticulum vesicles was measured using a Ca^2+-sensitive dye, antipyrylazo III. The absorbance was measured at 710 nm, using a diode-array spectrophotometer (MOS-200, Optical System, BIOLOGIC). The heavy sarcoplasmic reticulum vesicles (50 μg) were actively loaded with Ca^2+, at 37° C., in 2 ml of buffer containing 100 mM KCl, 7.5 mM sodium pyrophosphate, 20 mM MOPS, pH 7.0, to which 250 μM of antipyrylazo III, 1 mM ATP/MgCl2, 5 mM phosphocreatine and 12 μg/ml of creatine phosphokinase had been added (Palade, J. Biol. Chem., 1987, 262, 6142-6148).
The calcium loading begins with sequential additions of 50 μM and 20 μM CaCl2.
Under these loading conditions, no calcium-induced calcium release interferes with the observations. At the end of each experiment, the Ca^2+ remaining in the vesicles is measured by the addition of 4 μM of Ca^2+ ionophore, […] (Sigma), and the absorbance signal is calibrated by means of two consecutive additions of 20 μM CaCl2.

live cells = test: Flow cytometry analysis of cellular penetration at increasing extracellular KCl (membrane potential); assay type: cell-based; conditions: for mean fluorescence value: 100 nM complex, 1 hour
Description: The MCab-Strept-Cy^5 complexes were prepared in solutions containing various NaCl/KCl ratios (composition in mM: 145 to 5 NaCl, 5 to 145 KCl, 2.5 CaCl2, 1.2 MgCl2, 10 glucose, 10 HEPES, pH 7.4).
The cells were washed twice with the NaCl/KCl solution used to prepare the complexes, and then incubated with maurocalcine and the derived peptides, which are biotinylated and complexed with streptavidin-cyanin 3 (MCab-Strept-Cy^3 complexes), at the final concentration of 100 nM in the same NaCl/KCl solution, in the dark and at ambient temperature for 1 hour. After 2 washes in the same NaCl/KCl buffer, the cyanin 3 fluorescence was analyzed on live cells, using a flow cytometer (FACScalibur, BECTON DICKINSON). The data were recorded and analyzed using appropriate software (CellQuest, BD BIOSCIENCES). The live cells were sorted according to their size and their granulosity (forward/side scattering), over a total of 10 000 events.

T1 sequence (P11716 whole entry): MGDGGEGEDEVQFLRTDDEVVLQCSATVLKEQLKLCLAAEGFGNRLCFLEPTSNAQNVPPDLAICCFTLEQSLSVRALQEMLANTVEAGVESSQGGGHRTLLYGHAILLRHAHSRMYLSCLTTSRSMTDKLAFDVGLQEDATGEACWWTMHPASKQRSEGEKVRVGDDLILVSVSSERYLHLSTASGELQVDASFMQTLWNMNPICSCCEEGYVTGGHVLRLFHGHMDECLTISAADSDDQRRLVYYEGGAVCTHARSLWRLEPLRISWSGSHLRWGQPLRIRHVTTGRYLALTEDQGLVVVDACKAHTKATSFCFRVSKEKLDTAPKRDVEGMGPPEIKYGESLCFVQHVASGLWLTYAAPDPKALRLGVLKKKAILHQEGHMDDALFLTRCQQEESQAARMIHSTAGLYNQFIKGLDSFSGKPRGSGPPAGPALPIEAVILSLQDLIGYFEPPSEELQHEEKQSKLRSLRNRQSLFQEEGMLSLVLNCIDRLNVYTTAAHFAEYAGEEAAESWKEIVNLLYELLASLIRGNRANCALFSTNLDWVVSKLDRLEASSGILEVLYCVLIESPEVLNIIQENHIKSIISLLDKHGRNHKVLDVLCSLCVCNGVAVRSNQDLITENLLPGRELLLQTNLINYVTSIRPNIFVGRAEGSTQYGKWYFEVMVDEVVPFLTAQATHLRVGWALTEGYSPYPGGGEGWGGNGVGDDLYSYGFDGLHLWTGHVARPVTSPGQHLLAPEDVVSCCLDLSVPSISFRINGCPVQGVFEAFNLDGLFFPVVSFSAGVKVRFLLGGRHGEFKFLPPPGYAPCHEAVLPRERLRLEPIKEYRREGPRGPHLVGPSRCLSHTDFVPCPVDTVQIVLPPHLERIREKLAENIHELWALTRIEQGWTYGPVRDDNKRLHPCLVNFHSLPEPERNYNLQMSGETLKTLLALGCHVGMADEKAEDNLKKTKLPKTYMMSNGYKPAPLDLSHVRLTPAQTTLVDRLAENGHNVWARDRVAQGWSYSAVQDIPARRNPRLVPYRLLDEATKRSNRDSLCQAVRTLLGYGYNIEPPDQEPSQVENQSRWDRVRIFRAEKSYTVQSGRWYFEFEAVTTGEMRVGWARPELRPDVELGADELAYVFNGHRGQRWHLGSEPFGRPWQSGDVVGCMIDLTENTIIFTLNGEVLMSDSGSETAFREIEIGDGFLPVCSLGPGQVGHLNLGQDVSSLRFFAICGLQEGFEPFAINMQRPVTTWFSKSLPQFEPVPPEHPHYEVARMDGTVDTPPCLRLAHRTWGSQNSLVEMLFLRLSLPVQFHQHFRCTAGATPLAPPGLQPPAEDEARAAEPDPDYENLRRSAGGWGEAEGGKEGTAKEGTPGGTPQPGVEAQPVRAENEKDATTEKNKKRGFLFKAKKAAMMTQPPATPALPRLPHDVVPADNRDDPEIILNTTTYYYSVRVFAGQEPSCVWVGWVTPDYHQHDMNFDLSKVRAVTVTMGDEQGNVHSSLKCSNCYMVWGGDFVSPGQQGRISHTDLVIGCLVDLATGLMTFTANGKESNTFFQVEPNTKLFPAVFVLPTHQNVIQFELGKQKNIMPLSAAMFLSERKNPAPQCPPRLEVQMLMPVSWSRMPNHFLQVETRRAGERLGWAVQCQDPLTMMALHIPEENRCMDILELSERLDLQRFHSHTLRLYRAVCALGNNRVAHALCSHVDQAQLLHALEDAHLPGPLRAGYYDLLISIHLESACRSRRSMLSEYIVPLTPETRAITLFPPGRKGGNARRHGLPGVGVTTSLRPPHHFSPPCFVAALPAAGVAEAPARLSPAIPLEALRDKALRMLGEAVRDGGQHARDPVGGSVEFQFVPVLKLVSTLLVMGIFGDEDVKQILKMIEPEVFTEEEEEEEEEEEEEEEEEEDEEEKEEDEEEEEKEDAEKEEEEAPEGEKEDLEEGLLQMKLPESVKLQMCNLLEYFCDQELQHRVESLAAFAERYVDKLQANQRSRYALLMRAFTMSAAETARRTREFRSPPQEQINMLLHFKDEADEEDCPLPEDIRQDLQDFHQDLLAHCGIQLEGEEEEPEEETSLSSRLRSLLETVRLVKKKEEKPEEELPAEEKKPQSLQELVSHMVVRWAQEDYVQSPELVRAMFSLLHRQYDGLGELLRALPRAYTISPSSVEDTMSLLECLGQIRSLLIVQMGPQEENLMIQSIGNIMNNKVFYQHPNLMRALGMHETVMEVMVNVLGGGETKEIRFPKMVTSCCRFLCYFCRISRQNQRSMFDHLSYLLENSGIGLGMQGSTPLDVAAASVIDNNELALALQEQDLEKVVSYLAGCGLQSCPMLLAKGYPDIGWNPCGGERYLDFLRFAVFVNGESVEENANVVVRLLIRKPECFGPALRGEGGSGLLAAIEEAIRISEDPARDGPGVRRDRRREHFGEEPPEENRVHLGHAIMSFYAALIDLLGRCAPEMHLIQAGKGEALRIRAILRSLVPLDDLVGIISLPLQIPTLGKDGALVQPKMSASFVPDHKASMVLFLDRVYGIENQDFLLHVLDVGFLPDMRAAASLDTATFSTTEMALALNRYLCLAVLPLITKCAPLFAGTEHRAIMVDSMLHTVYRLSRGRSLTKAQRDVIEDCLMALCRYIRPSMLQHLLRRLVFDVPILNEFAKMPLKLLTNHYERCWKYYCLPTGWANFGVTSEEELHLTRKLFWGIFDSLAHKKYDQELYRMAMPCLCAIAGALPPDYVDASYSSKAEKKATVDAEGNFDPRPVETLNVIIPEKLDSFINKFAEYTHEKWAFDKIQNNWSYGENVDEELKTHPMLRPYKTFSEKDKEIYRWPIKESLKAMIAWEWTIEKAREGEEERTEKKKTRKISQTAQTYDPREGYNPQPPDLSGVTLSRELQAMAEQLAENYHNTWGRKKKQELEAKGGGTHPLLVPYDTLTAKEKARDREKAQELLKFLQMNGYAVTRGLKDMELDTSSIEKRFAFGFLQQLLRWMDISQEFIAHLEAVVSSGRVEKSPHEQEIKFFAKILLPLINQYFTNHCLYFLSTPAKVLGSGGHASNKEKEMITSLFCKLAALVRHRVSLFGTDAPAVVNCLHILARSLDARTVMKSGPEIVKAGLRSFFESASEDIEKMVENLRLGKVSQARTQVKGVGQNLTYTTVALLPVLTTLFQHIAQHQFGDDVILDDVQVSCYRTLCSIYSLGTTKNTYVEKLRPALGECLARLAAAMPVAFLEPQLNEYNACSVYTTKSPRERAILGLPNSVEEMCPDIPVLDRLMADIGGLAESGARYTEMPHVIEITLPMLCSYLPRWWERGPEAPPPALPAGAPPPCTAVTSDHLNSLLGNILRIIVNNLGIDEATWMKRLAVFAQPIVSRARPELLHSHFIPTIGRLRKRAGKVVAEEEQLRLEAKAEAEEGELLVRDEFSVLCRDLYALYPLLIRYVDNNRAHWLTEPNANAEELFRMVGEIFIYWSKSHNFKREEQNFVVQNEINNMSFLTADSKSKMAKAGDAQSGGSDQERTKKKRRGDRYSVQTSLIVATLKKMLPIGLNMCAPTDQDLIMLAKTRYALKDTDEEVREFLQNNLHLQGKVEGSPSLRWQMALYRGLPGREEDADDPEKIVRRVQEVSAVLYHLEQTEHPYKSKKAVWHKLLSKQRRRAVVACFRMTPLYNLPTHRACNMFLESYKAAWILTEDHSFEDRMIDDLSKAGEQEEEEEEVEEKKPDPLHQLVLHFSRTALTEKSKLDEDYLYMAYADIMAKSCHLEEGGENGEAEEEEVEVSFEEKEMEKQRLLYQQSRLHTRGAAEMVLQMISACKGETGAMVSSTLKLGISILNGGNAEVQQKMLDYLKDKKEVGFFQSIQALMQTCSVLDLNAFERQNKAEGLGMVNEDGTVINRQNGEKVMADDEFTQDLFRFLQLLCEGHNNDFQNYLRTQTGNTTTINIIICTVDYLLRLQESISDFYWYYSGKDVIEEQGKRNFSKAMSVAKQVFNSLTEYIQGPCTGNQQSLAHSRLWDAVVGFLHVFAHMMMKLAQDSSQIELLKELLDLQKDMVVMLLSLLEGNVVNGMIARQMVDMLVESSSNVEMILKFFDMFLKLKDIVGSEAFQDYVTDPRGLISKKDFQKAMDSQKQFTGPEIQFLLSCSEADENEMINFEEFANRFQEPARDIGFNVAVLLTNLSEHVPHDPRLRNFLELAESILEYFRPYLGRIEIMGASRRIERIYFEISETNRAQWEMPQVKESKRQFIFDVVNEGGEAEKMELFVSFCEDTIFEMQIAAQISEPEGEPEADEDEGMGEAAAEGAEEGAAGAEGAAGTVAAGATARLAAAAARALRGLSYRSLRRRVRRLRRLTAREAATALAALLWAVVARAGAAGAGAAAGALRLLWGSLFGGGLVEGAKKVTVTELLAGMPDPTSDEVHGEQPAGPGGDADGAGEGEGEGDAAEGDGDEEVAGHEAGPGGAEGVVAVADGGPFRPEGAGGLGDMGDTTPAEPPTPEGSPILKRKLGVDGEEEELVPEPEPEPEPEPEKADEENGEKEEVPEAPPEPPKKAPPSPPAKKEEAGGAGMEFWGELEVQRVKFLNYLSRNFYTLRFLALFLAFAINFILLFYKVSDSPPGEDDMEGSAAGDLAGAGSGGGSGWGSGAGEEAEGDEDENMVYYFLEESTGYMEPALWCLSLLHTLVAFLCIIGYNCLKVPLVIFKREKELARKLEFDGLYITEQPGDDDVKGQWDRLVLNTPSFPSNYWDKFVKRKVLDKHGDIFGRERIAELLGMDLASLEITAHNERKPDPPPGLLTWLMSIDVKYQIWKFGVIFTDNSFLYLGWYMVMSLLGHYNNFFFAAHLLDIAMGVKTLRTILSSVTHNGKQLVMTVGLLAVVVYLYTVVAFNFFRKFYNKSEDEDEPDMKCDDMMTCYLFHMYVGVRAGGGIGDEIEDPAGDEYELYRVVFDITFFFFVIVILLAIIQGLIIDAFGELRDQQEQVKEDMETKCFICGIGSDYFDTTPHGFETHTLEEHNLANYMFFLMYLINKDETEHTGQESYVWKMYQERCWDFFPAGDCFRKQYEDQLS

Q: For “MCab/Strept-Cy3: biotinylated maurocalcine, complexed with cyanin-3-labeled streptavidin”, which “entry into cells at decreased temperature” value (HEK293 cells; 100 nM, 1 h, 4° C.) is on record?
A: Its value is “still penetrate into the cells”.

Q: What about the “effect of amiloride on entry of the complex” value (HEK293 cells; 100 nM, 1 h, amiloride 3 mM) of the same substance?
A: The value was “no effect on the entry of the complex into the cells”.

Q: What about the “effect of nystatin on entry of the complex” value (HEK293 cells; 100 nM, 1 h, nystatin 50 μM) of the same substance?
A: The value was “no effect on the entry of the complex into the cells”.

Q: What about the “cellular distribution of complexes” value (HEK293 cells; 2 hours of incubation) of the same substance?
A: The value was “mainly present in the cytoplasm”.

Q: And the “cellular distribution of complexes” value (HEK293 cells; between 4 hours and 24 hours of incubation)?
A: The value was “mainly perinuclear and colocalizes with the nucleus”.

Q: What about the “efficiency of Ca2+ release in comparison with maurocalcine alone” value (RyR1 receptor) of the same substance?
A: The value was “slightly reduced efficiency”.

Q: What about the “induction of Ca2+ release from sarcoplasmic reticulum vesicles” value (RyR1 receptor) of the same substance?
A: The value was “induce Ca^2+ release”.

Q: And the mean fluorescence value (live cells; 5 mM KCl)?
A: The mean fluorescence value was 145.

Q: And the mean fluorescence value (live cells; 125 mM KCl)?
A: The mean fluorescence value was 40.

Q: What about the mean fluorescence value (live cells; 145 mM KCl) of the same substance?
A: The mean fluorescence value was 17.

Q: What about the “decreasing slope a (linear regression of fluorescence vs KCl concentration)” value (live cells; fit y=y0+a×x) of the same substance?
A: The value was −0.72.

Q: And the “maximum fluorescence y0 (linear regression vs KCl concentration)” value (live cells; fit y=y0+a×x)?
A: The value was 139.5.
